US8293802B2, “Gentle-acting skin-disinfectants and hydroalcoholic gel formulations” (The Trustees of Columbia University, priority 2001, dated 2012)
Like-named read-outs stand apart in the source and are kept apart here.

Tests used:
S. aureus = experiment: Rapid antimicrobial activity: test gel/base mixed with culture and bovine adult serum, 15 seconds, colony count; assay type: cell-based, Staphylococcus aureus; conditions: for Growth (CFU/ml) / S. aureus (cfu/tube): control 1 × 10^8; for Growth (cfu/tube): Table 7, control (without gel base) 2.5-4.2 × 10^8; for antimicrobial activity against S. aureus (in words): Tables 1 and 2
Protocol: Antimicrobial activity was evaluated using the following assay. 1 milliliter of 10^8 colony-forming units (“cfus”) of test organism per milliliter was added to 1 milliliter of bovine adult serum in a sterile culture tube and mixed. 1 milliliter of the test gel was added to each tube, and was vortexed to mix. After 15 seconds, three 0.5 ml aliquots were removed and further diluted 1:1000 with LTSB (lecithin-containing trypticase soy broth) drug-inactivating medium, and, of the resulting liquid, 0.5 milliliters were plated on each trypticase soy agar (“TSA”) plate. The resulting plates were incubated at 37° C. for 24 hours and the colony count per tube was determined.

[1] = at 22° C.; cited from earlier work
[2] = Table 5, alcohol gel base, 15 seconds
[3] = Table 1, alcohol gel base of Example 1, 15 seconds, bovine adult serum
[4] = Table 1, alcohol gel base, 15 seconds
[5] = Table 2, alcohol gel base, 15 seconds
[6] = Table 3, alcohol gel base, 15 seconds
[7] = Table 10, aqueous base of Example 8, 15 seconds, aqueous base control 5.0 × 10^8

## Clc1ccc(COC(Cn2ccnc2)c2ccc(Cl)cc2Cl)c(Cl)c1 (stereo not drawn) [1.0% Miconazole, miconazole]
S. aureus; [2]
  fold reduction relative to control: 0 fold
  Growth (CFU/ml): 1.0 × 10^8 CFU/ml

## Oc1cc(Cl)ccc1Oc1ccc(Cl)cc1Cl [0.3% TC, triclosan]
S. aureus; [2]
  fold reduction relative to control: 0 fold
  Growth (CFU/ml): 1.0 × 10^8 CFU/ml

## CCCCC(CC)COCC(O)CO (stereo not drawn) [2.0% Sensiva, glycerol 1-(2-ethylhexyl)ether]
S. aureus; [3]
  S. aureus (cfu/tube): 3 × 10^6 cfu/tube
S. aureus; [4]
  fold-reduction relative to control: 33 fold
S. aureus; [5]
  Log 10 cfu reduction relative to control: 1.5 log 10
  fold reduction relative to control: 33 fold
  S. aureus (cfu/tube): 3 × 10^6 cfu/tube
S. aureus; [2]
  fold reduction relative to control: 33 fold
  Growth (CFU/ml): 3 × 10^6 CFU/ml
S. aureus; Table 6, alcohol gel base, 15 seconds
  Fold Reduction Compared to Control: 33 fold
S. aureus; Table 6, alcohol gel base, 15 seconds, control 1.0 × 10^8
  Growth (CFU/ML): 3.0 × 10^6 CFU/ML

## CCCCC(CC)COCC(O)CO (stereo not drawn) [5.0% Sensiva, glycerol 1-(2-ethylhexyl)ether]
S. aureus; [3]
  S. aureus (cfu/tube): 1 × 10^6 cfu/tube
S. aureus; [4]
  fold-reduction relative to control: 100 fold

## povidone iodine [1.0% PVI]
S. aureus; [2]
  fold reduction relative to control: 5 fold
  Growth (CFU/ml): 2.0 × 10^7 CFU/ml

## CCCCC(CC)COCC(O)CO (stereo not drawn) [3.0% Sensiva, glycerol 1-(2-ethylhexyl)ether]
S. aureus; [3]
  S. aureus (cfu/tube): 1 × 10^6 cfu/tube
S. aureus; [4]
  fold-reduction relative to control: 100 fold

## N=C(NCCCCCCNC(=N)NC(=N)Nc1ccc(Cl)cc1)NC(=N)Nc1ccc(Cl)cc1.O=C(O)[C@H](O)[C@@H](O)[C@H](O)[C@H](O)CO.O=C(O)[C@H](O)[C@@H](O)[C@H](O)[C@H](O)CO [0.25% CHG, chlorhexidine digluconate]
S. aureus; [6]
  Log 10 cfu reduction relative to control: 1.1 log 10
  fold reduction relative to control: 12.5 fold
  S. aureus (cfu/tube): 8 × 10^6 cfu/tube

## CCCCC(CC)COCC(O)CO (stereo not drawn) [Sensiva SC 50, glycerol 1-(2-ethylhexyl)ether]
[1]
  water solubility: approximately 1.8 g/l

## N=C(NCCCCCCNC(=N)NC(=N)Nc1ccc(Cl)cc1)NC(=N)Nc1ccc(Cl)cc1.O=C(O)[C@H](O)[C@@H](O)[C@H](O)[C@H](O)CO.O=C(O)[C@H](O)[C@@H](O)[C@H](O)[C@H](O)CO [0.05% CHG, chlorhexidine digluconate]
S. aureus; [6]
  Log 10 cfu reduction relative to control: 1.0 log 10
  fold reduction relative to control: 9 fold
  S. aureus (cfu/tube): 1.1 × 10^7 cfu/tube
S. aureus; [2]
  fold reduction relative to control: 9 fold
  Growth (CFU/ml): 1.1 × 10^7 CFU/ml
S. aureus; alcohol gel base, 15 seconds
  Growth (cfu/tube): 1.1 × 10^7 cfu/tube
S. aureus; [7]
  Staphylococcus aureus (CFU/tube): 2.5 × 10^8 CFU/tube

## benzalkonium chloride [0.19% BZK]
S. aureus; [5]
  Log 10 cfu reduction relative to control: 0.7 log 10
  fold reduction relative to control: 5 fold
  S. aureus (cfu/tube): 2 × 10^7 cfu/tube
S. aureus; alcohol gel base
  antimicrobial activity against S. aureus (in words): minimal or no antimicrobial activity

## polyhexamethylene biguanide [0.3% PHMB]
S. aureus
  Staphylococcus aureus (CFU/tube): 1.0 × 10^7 CFU/tube
S. aureus; [2]
  fold reduction relative to control: 33 fold
  Growth (CFU/ml): 3.0 × 10^6 CFU/ml

## CCCCC(CC)COCC(O)CO (stereo not drawn) [0.5% Sensiva, glycerol 1-(2-ethylhexyl)ether]
S. aureus; [3]
  S. aureus (cfu/tube): 1 × 10^7 cfu/tube
S. aureus; [4]
  fold-reduction relative to control: 2.5 fold
S. aureus; alcohol gel base, 15 seconds
  Growth (cfu/tube): 4.0 × 10^7 cfu/tube

## N=C(NCCCCCCNC(=N)NC(=N)Nc1ccc(Cl)cc1)NC(=N)Nc1ccc(Cl)cc1.O=C(O)[C@H](O)[C@@H](O)[C@H](O)[C@H](O)CO.O=C(O)[C@H](O)[C@@H](O)[C@H](O)[C@H](O)CO [0.5% CHG, chlorhexidine digluconate]
S. aureus; [6]
  Log 10 cfu reduction relative to control: 1.4 log 10
  fold reduction relative to control: 23.8 fold
  S. aureus (cfu/tube): 4.2 × 10^6 cfu/tube

## benzalkonium chloride [0.12% BZK]
S. aureus; [5]
  Log 10 cfu reduction relative to control: 0.8 log 10
  fold reduction relative to control: 6.25 fold
  S. aureus (cfu/tube): 1.6 × 10^7 cfu/tube
S. aureus; [2]
  fold reduction relative to control: 6.25 fold
  Growth (CFU/ml): 1.6 × 10^7 CFU/ml
S. aureus; alcohol gel base, 15 seconds
  Growth (cfu/tube): 1.6 × 10^7 cfu/tube
S. aureus; [7]
  Staphylococcus aureus (CFU/tube): 2.0 × 10^8 CFU/tube
S. aureus; alcohol gel base
  antimicrobial activity against S. aureus (in words): minimal or no antimicrobial activity

## CCCCC(CC)COCC(O)CO (stereo not drawn) [1.0% Sensiva, glycerol 1-(2-ethylhexyl)ether]
S. aureus; [3]
  S. aureus (cfu/tube): 4 × 10^7 cfu/tube
S. aureus; [4]
  fold-reduction relative to control: 9 fold
S. aureus; [5]
  Log 10 cfu reduction relative to control: 1 log 10
  fold reduction relative to control: 10 fold
  S. aureus (cfu/tube): 4 × 10^7 cfu/tube
S. aureus; alcohol gel base, 15 seconds
  Growth (cfu/tube): 1.0 × 10^7 cfu/tube
S. aureus; [7]
  Staphylococcus aureus (CFU/tube): 5.0 × 10^8 CFU/tube

## benzalkonium chloride [0.019% BZK]
S. aureus; alcohol gel base, 15 seconds
  Growth (cfu/tube): 8.0 × 10^7 cfu/tube

## neomycin [0.3% Neomycin]
S. aureus; [2]
  fold reduction relative to control: 4.3 fold
  Growth (CFU/ml): 2.3 × 10^7 CFU/ml

## CC(C)(C)CC(C)(C)c1ccc(OCCOCC[N+](C)(C)Cc2ccccc2)cc1 [0.12% BZT, benzethonium chloride]
S. aureus; [2]
  fold reduction relative to control: 10 fold
  Growth (CFU/ml): 1.0 × 10^7 CFU/ml

## benzalkonium chloride [0.5% BZK]
S. aureus; [5]
  Log 10 cfu reduction relative to control: 1.4 log 10
  fold reduction relative to control: 27 fold
  S. aureus (cfu/tube): 3.7 × 10^6 cfu/tube
